This series deals with tobacco budworm (Heliothis virescens [Fabricius]). In words: surface-treated diet test against tobacco budworm. It counts as in vivo. To be noted: 0.25 millimoles of candidate insecticide on the surface of the diet, second instar larvae, five-day exposure; for Percent Mortality: compared to the total number of insects infested; for Percent Growth Inhibition: inhibition of insect weight relative to untreated controls. Here is the method:
Candidate insecticides were evaluated for activity against the tobacco budworm (Heliothis virescens [Fabricius]) in a surface-treated diet test.
In this test one mL of molten (65-70° C.) wheat germ-based artificial diet was pipetted into each well of a four by six (24 well) multi-well plate (ID# 430345-15.5 mm dia.×17.6 mm deep; Corning Costar Corp., One Alewife Center, Cambridge, Mass. 02140). The diet was allowed to cool to ambient temperature before treatment with candidate insecticide.
For a determination of insecticidal activity, solutions of the candidate insecticides were prepared for testing using a Packard 204DT Multiprobe® Robotic System (Packard Instrument Company, 800 Research Parkway, Meriden, Conn. 06450), in which the robot first diluted a standard 50 millimolar DMSO solution of candidate insecticide with a 1:1 water/acetone solution (V/V) in a ratio of 1:7 stock solution to water/acetone. The robot subsequently pipetted 40 microliters of the so-prepared solution onto the surface of the diet in each of three wells in the 24 multi-well plate. The process was repeated with solutions of seven other candidate insecticides. Once treated, the contents of the multi-well plate were allowed to dry, leaving 0.25 millimoles of candidate insecticide on the surface of the diet, or a concentration of 0.25 millimolar. Appropriate untreated controls containing only DMSO on the diet surface were also included in this test.
For evaluations of the insecticidal activity of a candidate insecticide at varying rates of application, the test was established as described above using sub-multiples of the standard 50 millimolar DMSO solution of candidate insecticide. For example, the standard 50 millimolar solution was diluted by the robot with DMSO to give 5, 0.5, 0.05, 0.005, 0.0005 millimolar, or more dilute solutions of the candidate insecticide. In these evaluations there were six replicates of each rate of application placed on the surface of the diet in the 24 multi-well plate, for a total of four rates of application of candidate insecticide in each plate.
In each well of the test plate was placed one second instar tobacco budworm larvea, each weighing approximately five milligrams. After the larvae were placed in each well, the plate was sealed with clear polyfilm adhesive tape. The tape over each well was perforated to ensure an adequate air supply. The plates were then held in a growth chamber at 25° C. and 60% relative humidity for five days (light 14 hours/day).
After the five-day exposure period insecticidal activity for each rate of application of candidate insecticide was assessed as percent inhibition of insect weight relative to the weight of insects from untreated controls, and percent mortality when compared to the total number of insects infested.
The test compounds of formula I are identified by numbers that correspond to those in Table 1.

The text below walks through data of patent US7365082B2, “N-(substituted arylmethyl)-4-(disubstituted methyl)piperidines and piperazines” (Bayer CropScience AG, priority 2002, dated 2008).

Each structure is given as a SMILES string.

For the molecule `[O-][N+]1(Cc2ccc(Oc3ccccn3)cc2)CCN(C(c2ccc(Cl)cc2)c2ccc(C(F)(F)F)cc2)CC1` (stereo not shown) [Compound 176], the “Percent Mortality” value was 100% and the “Percent Growth Inhibition” value is on record as 100%.

With `CC(C)NN=C(c1ccc(C(F)(F)F)cc1)C1CCN(Cc2ccc(-c3nnn(C)n3)cc2)CC1` [Compound 91], the “Percent Mortality” value was 0% and the “Percent Growth Inhibition” value turned out to be 79%.

For `CCn1nnc(-c2ccc(CN3CCC(C(=NNc4cccc(C(F)(F)F)c4)c4ccc(OC(F)(F)F)cc4)CC3)cc2)n1` [Compound 121], the “Percent Mortality” value came to 100% and the “Percent Growth Inhibition” value was 100%.

As for `CCn1nnc(-c2ccc(CN3CCC(C(=NNc4ccc(C(F)(F)F)cc4)c4ccc(OC(F)(F)F)cc4)CC3)cc2)n1` [Compound 122], the “Percent Mortality” value is listed as 100% and the “Percent Growth Inhibition” value was determined as 96%.

Consider `Cn1nnc(-c2ccc(CN3CCC(C(=O)c4ccc(OC(F)(F)F)cc4)CC3)cc2)n1` [Compound 67], for which the “Percent Mortality” value is listed as 100% and the “Percent Growth Inhibition” value was 95%.

Take `Cn1nnc(-c2ccc(CN3CCC(C(=NNC(=O)c4cccc(F)c4)c4ccc(OC(F)(F)F)cc4)CC3)cc2)n1` [Compound 142]: the “Percent Mortality” value is reported as 67% and the “Percent Growth Inhibition” value came out at 100%.

In the case of `Cn1nnc(-c2ccc(CN3CCC(C(=NNC(=O)c4ccc(Cl)cc4)c4ccc(Cl)cc4)CC3)cc2)n1` [Compound 138], the “Percent Mortality” value was found to be 0% and the “Percent Growth Inhibition” value is listed as 14%.

Regarding `FC(F)(F)c1ccc(C(c2ccc(C(F)(F)F)cc2)N2CCN(Cc3ccc(Oc4ncccn4)cc3)CC2)cc1` [Compound 169, 2-{4-[(4-{bis[4-(trifluoromethyl)phenyl]methyl}piperazinyl)methyl]phenoxy}pyrimidine], the “Percent Growth Inhibition” value is recorded as 100%.

For the molecule `Cn1nnc(-c2ccc(CN3CCC(C(=NNC(=O)c4ccc(Cl)cc4)c4ccc(OC(F)(F)F)cc4)CC3)cc2)n1` [Compound 139], the “Percent Mortality” value stood at 100% and the “Percent Growth Inhibition” value was 100%.

Turning to `CCn1nnc(-c2ccc(CN3CCC(C(=NNCc4ccc(C(F)(F)F)cc4)c4ccc(OC(F)(F)F)cc4)CC3)cc2)n1` [Compound 127], the “Percent Mortality” value is 100% and the “Percent Growth Inhibition” value is on record as 100%.

On to `O=C(NN=C(c1ccc(OC(F)(F)F)cc1)C1CCN(Cc2ccc(Oc3ccccn3)cc2)CC1)c1ccc(Cl)cc1` [Compound 131], for which the “Percent Mortality” value is 50% and the “Percent Growth Inhibition” value is recorded as 100%.

As for `Cn1nnc(-c2ccc(CN3CCC(C(=NNC(=O)c4ccc(OC(F)(F)F)cc4)c4ccc(OC(F)(F)F)cc4)CC3)cc2)n1` [Compound 148], the “Percent Mortality” value was determined as 100% and the “Percent Growth Inhibition” value stood at 100%.

As for `CCn1nnc(-c2ccc(CN3CCC(C(=Cc4ccc(OC(F)(F)F)cc4)c4ccc(Cl)cc4)CC3)cc2)n1` [Compound 94], the “Percent Mortality” value is 100% and the “Percent Growth Inhibition” value was found to be 100%.

`Cn1nnc(-c2ccc(CN3CCC(C(=NNc4ccc(OC(F)(F)F)cc4)c4ccc(OC(F)(F)F)cc4)CC3)cc2)n1` [Compound 123]: the “Percent Mortality” value is listed as 100% and the “Percent Growth Inhibition” value was 100%.

Regarding `CCn1nnc(-c2ccc(CN3CCC(C(=NNc4ccc(C)cc4)c4ccc(OC(F)(F)F)cc4)CC3)cc2)n1` [Compound 113], the “Percent Mortality” value came to 100% and the “Percent Growth Inhibition” value was 100%.

Take `CCn1nnc(-c2ccc(CN3CCC(C(=NNc4ccc(S(N)(=O)=O)cc4)c4ccc(OC(F)(F)F)cc4)CC3)cc2)n1` [Compound 125]: the “Percent Mortality” value is reported as 100% and the “Percent Growth Inhibition” value turned out to be 100%.

With `Cn1nnc(-c2ccc(CN3CCC(C(=NNC(=O)c4ccc(I)cc4)c4ccc(OC(F)(F)F)cc4)CC3)cc2)n1` [Compound 144], the “Percent Mortality” value is recorded as 100% and the “Percent Growth Inhibition” value was found to be 100%.

Regarding `CCn1nnc(-c2ccc(CN3CCC(/C(=N\NC(=O)c4ccc(OC(F)(F)F)cc4)c4ccc(OC(F)(F)F)cc4)CC3)cc2)n1` [Compound 149, N-[1-aza-2-(1-{[4-(2-ethyl(1,2,3,4-tetraazol-5-yl))phenyl]methyl}(4-piperidyl))-2-[4-(trifluoromethoxy)phenyl]vinyl][4-(trifluoromethoxy)phenyl]carboxamide], the “Percent Mortality” value came out at 100% and the “Percent Growth Inhibition” value stood at 96%.

In the case of `[O-][N+]1(Cc2ccc(Oc3ccccn3)cc2)CCN(C(c2ccc(C(F)(F)F)cc2)c2ccc(C(F)(F)F)cc2)CC1` [Compound 177], the “Percent Mortality” value is recorded as 100% and the “Percent Growth Inhibition” value was 100%.

Turning to `Cn1nnc(-c2ccc(CN3CCC(C(=NNC(=O)c4ccccc4Cl)c4ccc(OC(F)(F)F)cc4)CC3)cc2)n1` [Compound 136], the “Percent Mortality” value was 76% and the “Percent Growth Inhibition” value is 0%.

In the case of `Cn1nnc(-c2ccc(CN3CCC(C(=NNC(=O)c4cccc(Cl)c4)c4ccc(OC(F)(F)F)cc4)CC3)cc2)n1` [Compound 137], the “Percent Mortality” value worked out at 100% and the “Percent Growth Inhibition” value stood at 100%.

Regarding `CCn1nnc(-c2ccc(CN3CCC(C(=NNCc4ccc(OC(F)(F)F)cc4)c4ccc(OC(F)(F)F)cc4)CC3)cc2)n1` [Compound 128], the “Percent Mortality” value came out at 0% and the “Percent Growth Inhibition” value was 96%.

Consider `CCn1nnc(-c2ccc(CN3CCC(C(=NNC(=O)c4ccc(C(F)(F)F)cc4)c4ccc(OC(F)(F)F)cc4)CC3)cc2)n1` [Compound 147], for which the “Percent Mortality” value came out at 100% and the “Percent Growth Inhibition” value is 92%.

Regarding `CCn1nnc(-c2ccc(CN3CCC(C(=NNS(=O)(=O)c4ccc(OC(F)(F)F)cc4)c4ccc(OC(F)(F)F)cc4)CC3)cc2)n1` [Compound 130], the “Percent Mortality” value was 100% and the “Percent Growth Inhibition” value came to 100%.

Consider `CCn1nnc(-c2ccc(CN3CCC(C(=NNc4ccc([N+](=O)[O-])cc4)c4ccc(OC(F)(F)F)cc4)CC3)cc2)n1` [Compound 126], for which the “Percent Mortality” value is recorded as 100% and the “Percent Growth Inhibition” value amounted to 100%.

Consider `CCn1nnc(-c2ccc(C[N+]3([O-])CCN(C(c4ccc(C(F)(F)F)cc4)c4ccc(C(F)(F)F)cc4)CC3)cc2)n1` [Compound 175], for which the “Percent Mortality” value turned out to be 100% and the “Percent Growth Inhibition” value is recorded as 100%.

For the molecule `Cn1nnc(-c2ccc(CN3CCC(C(=NNC(=O)c4ccc(Br)cc4)c4ccc(OC(F)(F)F)cc4)CC3)cc2)n1` [Compound 140], the “Percent Mortality” value is on record as 100% and the “Percent Growth Inhibition” value is recorded as 100%.

`O=C(c1ccc(OC(F)(F)F)cc1)C1CCN(Cc2ccc(-c3ccccn3)cc2)CC1` [Compound 62]: the “Percent Mortality” value is given as 100% and the “Percent Growth Inhibition” value amounted to 95%.

On to `CC(C)OC(=O)Nc1ccc(C[N+]2([O-])CCN(C(c3ccc(C(F)(F)F)cc3)c3ccc(C(F)(F)F)cc3)CC2)cc1` [Compound 174], for which the “Percent Mortality” value is recorded as 100% and the “Percent Growth Inhibition” value is reported as 100%.

Turning to `CCn1nnc(-c2ccc(CN3CCC(C(=NNc4ccccc4C(F)(F)F)c4ccc(OC(F)(F)F)cc4)CC3)cc2)n1` [Compound 120], the “Percent Mortality” value is on record as 0% and the “Percent Growth Inhibition” value was found to be 40%.

`CCn1nnc(-c2ccc(CN3CCC(C(=NNc4ccccn4)c4ccc(OC(F)(F)F)cc4)CC3)cc2)n1` [Compound 92]: the “Percent Mortality” value is 0% and the “Percent Growth Inhibition” value is reported as 45%.
